Drawing on ChEMBL document CHEMBL1144748, “N-D-aldopentofuranosyl-N'-[p-(isoamyloxy)phenyl]-thiourea derivatives: potential anti-TB therapeutic agents” (2008), this text covers MIC for five compounds.

Molecules are shown by their SMILES. Values after ≈ are worked out from the molar mass of the structure shown.

This test deals with Mycobacterium tuberculosis. Description: Antimycobacterial activity against Mycobacterium tuberculosis H37Rv by microplate alamar blue assay. The format is functional.
The compound `CC(C)CCOc1ccc(NC(=S)NC2O[C@H](CO)[C@@H](O)[C@H]2O)cc1` (stereo not given in full) gave an MIC of 3.12 µg/mL (≈ 8.44 µM).

As for `CC(C)CCOc1ccc(NC(=S)NC2O[C@H](CO)[C@H](O)[C@@H]2O)cc1` (stereo not given in full), the minimal inhibitory concentration (MIC) was found to be 50 µg/mL (≈ 135 µM).

`CC(C)CCOc1ccc(NC(=S)Nc2ccc(OCCC(C)C)cc2)cc1` [TIOCARLIDE]: the MIC worked out at 2.5 µg/mL (≈ 6.24 µM). This MIC lies about 20-fold lower than the previous one.

As for `CC(C)CCOc1ccc(NC(=S)NC2O[C@H](CO)[C@@H](O)[C@@H]2O)cc1` (stereo not given in full), it took 1.56 µg/mL (≈ 4.21 µM) to inhibit growth (MIC).

`CC(C)CCOc1ccc(NC(=S)NC2O[C@H](CO)[C@H](O)[C@H]2O)cc1` (stereo not given in full) showed an MIC of 6.25 µg/mL (≈ 16.9 µM).

In general, MIC refers to the lowest concentration that inhibits growth of the organism. Lower therefore signals a more susceptible organism.
